Reference: patent US20080009025A1, “PROTEIN KINASE REGULATION” (priority 1999, published 2008)
Where a SMILES comes first, the peptide text is derived from it.

How the values were obtained:
PDK1 [1] = target: T1, PDK1 (Homo sapiens, UniProt O15530); test: Phosphorylation of p70 S6K at Thr412 by PDK1 in vitro (T412-P immunoblot); type: biochemical; set-up: made in house; host or cells: 293 cells or E. coli; details: peptide 4 μM
T1 sequence (O15530 1-556): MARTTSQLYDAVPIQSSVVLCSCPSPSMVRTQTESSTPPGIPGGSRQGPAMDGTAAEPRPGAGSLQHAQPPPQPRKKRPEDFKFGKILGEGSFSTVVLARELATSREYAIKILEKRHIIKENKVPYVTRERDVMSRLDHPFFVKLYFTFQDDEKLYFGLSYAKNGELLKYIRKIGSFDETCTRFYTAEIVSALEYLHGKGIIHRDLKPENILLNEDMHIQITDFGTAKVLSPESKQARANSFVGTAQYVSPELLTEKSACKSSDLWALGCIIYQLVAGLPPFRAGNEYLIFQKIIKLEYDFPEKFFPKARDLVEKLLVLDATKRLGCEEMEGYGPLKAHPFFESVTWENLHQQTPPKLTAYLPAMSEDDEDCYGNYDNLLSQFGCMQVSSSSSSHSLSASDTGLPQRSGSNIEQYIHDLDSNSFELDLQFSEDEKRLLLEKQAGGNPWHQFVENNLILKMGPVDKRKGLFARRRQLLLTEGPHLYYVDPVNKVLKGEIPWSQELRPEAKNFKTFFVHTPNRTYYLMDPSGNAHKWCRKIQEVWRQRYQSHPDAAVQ
Experimental: FIG. 2. PDK1 phosphorylates p70 S6K at Thr412 in vitro and this is inhibited by PIF. 0.5 μg of either wild type GST-p70 S6K-T2 (wt), T252A-GST-p70 S6K-T2 (252A) or T412A-GST-p70 S6K-T2 (412A) were incubated for 90 min at 30° C. with MgATP in the presence or absence of wild type (wt) or kinase-dead (kd) GST-PDK1 expressed in either 293 cells or bacteria in the presence (+) or absence (−) of the wild type PIF peptides (4 μM) in a final volume of 20 μl. The reactions were terminated by making the solutions 1% in SDS, the samples were subjected to SDS-polyacylamide gel electrophoresis, and the phosphorylation of p70 S6K at Thr412 was assessed by immunoblotting with the T-412P antibody. Similar results were obtained in three separate experiments.
Immunoblotting for dephosphorylated and Thr412-phosphorylated p70 S6 kinase. Cell lysates were made 1% SDS and the indicated amounts of protein were subjected to SDS/Polyacrylamide gel electrophoresis, subsequently transferred to nitrocellulose and immunoblotted using the indicated monoclonal antibody or the T412-P phospho-specific antibody (0.4 μg/ml) in 50 mM Tris/HCl pH7.5, 0.15M NaCl, 0.5% (by vol) Tween and 10% (by mass) skimmed milk. Detection was performed using the enhanced chemiluminescence reagent (Amersham Pharmacia Biotech).

PDK1 [2] = target: T1, PDK1; set-up: Full length PDK1 (residues 1-556); made in house; host or cells: 293 cells; details: ref [17]; cited from earlier work

CC[C@H](C)[C@H](NC(=O)[C@H](Cc1ccc(O)cc1)NC(=O)[C@H](CC(=O)O)NC(=O)[C@H](Cc1ccccc1)NC(=O)[C@H](CC(=O)O)NC(=O)[C@H](CCCNC(=N)N)NC(=O)[C@H](Cc1ccccc1)NC(=O)[C@H](CCSC)NC(=O)[C@H](CCC(=O)O)NC(=O)[C@H](CCC(N)=O)NC(=O)[C@H](CCC(=O)O)NC(=O)[C@H](CCC(=O)O)NC(=O)[C@H](CCC(=O)O)NC(=O)[C@H](CO)NC(=O)[C@H](CC(C)C)NC(=O)[C@@H](NC(=O)[C@H](CCCNC(=N)N)NC(=O)[C@@H]1CCCN1C(=O)[C@H](CCC(=O)O)NC(=O)[C@@H](N)CCCNC(=N)N)[C@@H](C)CC)C(=O)N[C@@H](C)C(=O)N[C@@H](CC(=O)O)C(=O)N[C@@H](Cc1c[nH]c2ccccc12)C(=O)N[C@@H](CS)C(=O)O [PIFtide] (H-REPRILSEEEQEMFRDFDYIADWC-OH; N-terminus and C-terminus assumed)
effect on phosphorylation of p70 S6K at Thr412 by PDK1 (PDK1 [1]): prevented
increase in the rate at which PDK1 phosphorylated T308tide (PDK1 [2]): 4 fold
